This is an account of results in patent US20240207422A1, “NERVE TARGETING PEPTIDE CONJUGATES AND METHODS OF USE” (Alume Biosciences, Inc., priority 2022, published 2024).

For this assay, the system named is human nerve extract. As to the kind of experiment: Phage display selection on plates coated with human nerve extract (Plated Nerve2), NextGen sequence counts. Format: binding. The conditions noted are these: unique sequence count (relative enrichment); Plated Nerve2 only. Here is the method:
Several m13 phage libraries were constructed expressing randomized variants of a parent peptide (QVPWEEPYYVVKKS-SGGL; SEQ ID NO: 576). In particular, the first 14 amino acids of the parent peptide were randomized using degenerate oligonucleotide synthesis to obtain a diverse set of peptides with a mutation rate of about 50% per residue.
To accomplish this, synthesis was carried out by the XXK codon design approach, where X is any base and K is G or T. To bias synthesis towards the parent sequence, synthesis was carried out at each X position with a mixture of about 70%-85% of the parent nucleotide and 15-30% of the remaining 3 nucleotides. The resulting molecules were inserted into fADL-1e (Antibody Design Laboratories), which is a type 3 phage display vector having a cloning site on the N-terminal side of the full-length gene III protein. The fusion proteins are directed to the periplasm by the PelB leader peptide, which is inserted in the vector […].
Collectively, the phage display libraries used in the screens comprised about 600 million peptides, with sequencing analysis confirming a mutation rate of about 50% per residue.
Phage libraries were independently processed, as follows, with five biological samples: two independent samples of excised human nerve tissue, one sample of a human nerve extract, and two independent samples of human muscle tissue, as follows:
Human Nerve Extracts: Phage libraries were incubated for up to 24 hours at 4° C. in 96 well plates that had been coated with a human nerve extract. Plates were then washed with PBS and phage were eluted using 0.2M glycine pH 2.0. Phage supernatants where then neutralized with Tris pH 9.0 prior to plating on TG1 bacteria and LB agar plates. Colonies were counted to determine titer followed by DNA preparation of pools of phage and NextGen sequencing. After rounds of selection, phage were pooled and amplified for iterative selection. Phage that eluted by 0.2M glycine pH 2.0 (the nerve binders) at each round were sequenced. NextGen sequencing of pools after 2, 3 and 4 rounds of selection were used to isolate candidate sequences that were further analyzed using bioinformatics.
NextGen sequencing of pools after 2, 3 and 4 rounds of selection were used to isolate candidate sequences from each of the five samples. These five data sets were then analyzed as described in the next section.
Peptide and vector sequences were translated starting at the first start codon in the nucleotide sequence. […] Trimmed peptides with identical sequences were combined and quantified according to their frequency (count).
Following processing, an R script was written to merge the unique peptide sequences (with counts 6 or greater) from the 5 different data sets to analyze the overlap between nerve and muscle binding activity.
For the single Nerve2, Nerve3, and Plated Nerve2 (pn2) subsets, the number of counts for each group was set at a threshold giving rise to at least 100 peptides. […] As highlighted in yellow in FIG. 1B, the representative group also included 6 unique peptides overlapping between nerve2 and nerve3, 200 unique peptides overlapping between nerve2 and plated nerve2 (at least 60 counts), 4 unique peptides overlapping between nerve3 and plated nerve2. Finally, as highlighted in green in FIG. 1B, the representative group also included […] common to the nerve2, nerve3, and plated nerve2 sets.

With 450 (QFAWSQSYAYSSTT) [compound 450], the Count stood at 107. On to 451 (QGQWDKPYDAVQNS) [compound 451], for which the Count worked out at 88. 452 (QIPGDAQYRLVKRS) [compound 452] showed a Count of 80. For 453 (QIPWTQPQYDVTPP) [compound 453] the value was 79; for 454 (HVELESSYYFVNNS) [compound 454], 78; for 455 (QFPLAEPYYHLTES) [compound 455], 77. For 456 (HFDWEEPYYDASKA) [compound 456] the value was 73; for 457 (SYEWEDPYYDLKYS) [compound 457], 73; for 458 (NVTGAEYYYRMNNY) [compound 458], 67. For 459 (HVSCEVPCYGALAS) [compound 459] the value was 66; for 460 (HDASEGAYYVERNS) [compound 460], 65; for 461 (QFGWEEPYYVLHTV) [compound 461], 65. The substance 462 (HLSREGTYYAVKQP) [compound 462] registered a Count of 64. For 463 (QLPLYDPYYTVRTS) [compound 463], the Count was 63.

On to 464 (ELPYEEPGTFVEKA) [compound 464], for which the Count is 62.

As for 465 (QFPWEEPYYVFTNS) [compound 465], the Count is 62. In turn, 466 (QIPGGERSYVLENS) [compound 466] came in with a Count of 62. 467 (QITSDKPYYVVKNS) [compound 467] showed a Count of 60. The value for 468 (YDPSGEPYYRVNNH) [compound 468] was 59; that for 469 (QVPRPASSYIGKTS) [compound 469] was 58. 470 (QIPLEGPTYVTNPS) [compound 470] showed a Count of 57. The value for 471 (AIPSGAPYYKVNKY) [compound 471] was 56; that for 472 (EFRSEQPYYFVNKY) [compound 472] was 55. For the substance 473 (QIRWDETYYDIQKT) [compound 473], the Count is on record as 55. For 474 (QLALEQQSYDAKMS) [compound 474] the value was 55; for 475 (ALPWEHPWCVSKNC) [compound 475], 54. Take 476 (HVPVLEPYDLVKKS) [compound 476]: the Count is 54. Turning to 477 (QIRSTEPYYVFKKT) [compound 477], the Count is 54. The value for 478 (QSPGTNPQNVLIKS) [compound 478] was 54. The substance 479 (QITSVDPSSLAYRS) [compound 479] came in with a Count of 53. For 480 (QMPSGAPYDATLNS) [compound 480] the value was 53; for 481 (QNPWDEPSYVVKNV) [compound 481], 53.

482 (QSPFDETAYGLTHS) [compound 482] yielded a Count of 53. 483 (QVLFAKSYYSVKDS) [compound 483] came in with a Count of 53. 484 (RFPADEEHYVGKLS) [compound 484] registered a Count of 53.

485 (YVPYEEQKYVVTKS) [compound 485] showed a Count of 53. On to 486 (HSQGQTTEYVGKQS) [compound 486], for which the Count is listed as 52. Take 487 (DFQSEETRNLAKMP) [compound 487]: the Count stood at 51.

The substance 488 (DVPWPAPYYAVSKY) [compound 488] returned a Count of 51. 489 (QFPGEESHYVVRNS) [compound 489] came in with a Count of 51. Consider 490 (QFQWETPSHVINDS) [compound 490], for which the Count is listed as 51. Regarding 491 (QTPRQTLYYSVKAY) [compound 491], the Count was determined as 51. The value for 492 (HVAYQEPFVYQKTS) [compound 492] was 50; that for 493 (QISRGDTYYVMNKS) [compound 493] was 50.

On to 494 (HIPGEEPSDGVRSY) [compound 494], for which the Count worked out at 49. In the case of 495 (HLSVAEPYYAVRNS) [compound 495], the Count is 49.

Substance 496 (QLQWQKSNWVGKIT) [compound 496] gave a Count of 49. For 497 (EIPWEGTYRLVKHS) [compound 497] the value was 48; for 498 (HVPQKEPYYVVKTF) [compound 498], 48; for 499 (QFPLFTTFYNVEES) [compound 499], 47. As for 500 (QFPWETSYYIVKNS) [compound 500], the Count worked out at 47. In turn, 501 (QLAGGDPYVLPKLS) [compound 501] had a Count of 47. Substance 502 (DVASGEQSYIVVKY) [compound 502] showed a Count of 46. For 503 (HVWLEDTISAEKKS) [compound 503] the value was 46; for 504 (QVQWDGASSIVQKT) [compound 504], 46. The value for 505 (HFRGPEPYKFVENP) [compound 505] was 45; that for 506 (HVPWEGPEYIVTQS) [compound 506] was 45; that for 507 (QFPRHDPNEVVHKS) [compound 507] was 45.

508 (QIPSEEPNYILKSS) [compound 508] had a Count of 45.

Consider 509 (QRPGDEPSYFVKNS) [compound 509], for which the Count came out at 45. In turn, 510 (ELTMEQPSYVGNVS) [compound 510] returned a Count of 44. For 511 (QLPWHEAFFGVNNG) [compound 511] the value was 44. 512 (QVLEKEPSSNVHKS) [compound 512]: the Count is reported as 44. The value for 513 (HVPSYAPNYEIKES) [compound 513] was 43; that for 514 (QHLGEEPSYSGEYA) [compound 514] was 43; that for 515 (SISSKDPYALVKYS) [compound 515] was 43. The substance 516 (QFPWDEPNYVVKNF) [compound 516] gave a Count of 42. For 517 (QLPFNEPYYSQQVS) [compound 517] the value was 42. For 518 (HLSMEAPYYGVKEY) [compound 518] the value was 41.

With 519 (HVLGEQPYSVVKTS) [compound 519], the Count was 41.

520 (HVSWEEPRYIVKDS) [compound 520] gave a Count of 41.

The substance 521 (QLPWEGPYYIVKKS) [compound 521] displayed a Count of 41.

With 522 (QTPAEKPYYVVKKY) [compound 522], the Count turned out to be 41. For the substance 523 (HVPSQEWYYDLHKS) [compound 523], the Count is given as 40. The value for 524 (QFPWHKQFYVGKSS) [compound 524] was 40; that for 525 (DFQIVGPSYVGKNS) [compound 525] was 39. Substance 526 (HLPSEKPWYDLDGS) [compound 526] showed a Count of 39.

527 (HVSWSTSKYVVNHS) [compound 527] gave a Count of 39.

528 (QISWEDPDYGVRKS) [compound 528] had a Count of 39. On to 529 (QVPCEQQSCVVKNS) [compound 529], for which the Count amounted to 39. The value for 530 (LFTGQQSYYEVQES) [compound 530] was 38. For 531 (LVSPTGPIYVMNKS) [compound 531] the value was 38; for 532 (QFASEEPYHVMKKP) [compound 532], 38. 533 (QFSRADSQYLVKNS) [compound 533] registered a Count of 38. The value for 534 (QIPLQDPYHVVEKS) [compound 534] was 38; that for 535 (QLLWGESYSIVKNY) [compound 535] was 38; that for 536 (QLPSQTQNYYDTNA) [compound 536] was 38. For 537 (QLRSEDTYYTMQSY) [compound 537] the value was 38. The value for 538 (SVAGQQHYYVSTKP) [compound 538] was 38.
